These are literature values, as cited in US20040176366A1, “Method of preventing or treating atherosclerosis or restenosis” (priority 2002, published 2004).

For the data set, the system named is CMV. The settings on record: rats, prophylaxis.

As to `Nc1nc(O)c2ncn(COC(CO)CO)c2n1` [Ganciclovir], the “prevention of atherosclerosis resulting from CMV infection” value is given as “prevent atherosclerosis resulting from CMV infection of rats”.
